# ChEMBL document CHEMBL1145680, “Bioactive Norlignan Glucosides from Curculigo capitulata” (1997)
# Calls of active or inactive are those of the source. The rule behind the calls is not given here.
# Tested on: Heart
# Assay: Antiarrhythmic activity against ouabain-induced arrhythmia in guinea pig right ventricle assessed as reversal of cardiac arrhythmia to normal rhythm at 1 uM
# Format: functional, tissue-based
# Conditions: Cavia porcellus
row,SMILES,Activity
1,CCCCO[C@H](c1ccc(O)c(O)c1)[C@H](CC#Cc1ccc(O)c(O)c1)O[C@@H]1O[C@H](CO)[C@@H](O)[C@H](O)[C@H]1O,inactive
2,CO[C@H](c1ccc(O)c(O)c1)[C@H](CC#Cc1ccc(O)c(O)c1)O[C@@H]1O[C@H](CO)[C@@H](O)[C@H](O)[C@H]1O,inactive

# Tested on: Heart
# Assay: Antiarrhythmic activity against ouabain-induced arrhythmia in guinea pig left atria assessed as reversal of cardiac arrhythmia to normal rhythm at 3 uM
# Format: functional, tissue-based
# Conditions: Cavia porcellus
row,SMILES,Activity
1,CCCCO[C@H](c1ccc(O)c(O)c1)[C@H](CC#Cc1ccc(O)c(O)c1)O[C@@H]1O[C@H](CO)[C@@H](O)[C@H](O)[C@H]1O,Active
2,CO[C@H](c1ccc(O)c(O)c1)[C@H](CC#Cc1ccc(O)c(O)c1)O[C@@H]1O[C@H](CO)[C@@H](O)[C@H](O)[C@H]1O,inactive

# Tested on: not listed separately
# Assay: Effect on 2 Hz electrically driven contractile tension in WKY rat right ventricle at 30 uM relative to control
# Format: functional, Heart right ventricle
# Conditions: not given
row,SMILES,Activity
1,CCCCO[C@H](c1ccc(O)c(O)c1)[C@H](CC#Cc1ccc(O)c(O)c1)O[C@@H]1O[C@H](CO)[C@@H](O)[C@H](O)[C@H]1O,88.2%
2,CO[C@H](c1ccc(O)c(O)c1)[C@H](CC#Cc1ccc(O)c(O)c1)O[C@@H]1O[C@H](CO)[C@@H](O)[C@H](O)[C@H]1O,99.3%

# Tested on: not listed separately
# Assay: Effect on 2 Hz electrically driven contractile tension in WKY rat right ventricle at 10 uM relative to control
# Format: functional, Heart right ventricle
# Conditions: not given
row,SMILES,Activity
1,CCCCO[C@H](c1ccc(O)c(O)c1)[C@H](CC#Cc1ccc(O)c(O)c1)O[C@@H]1O[C@H](CO)[C@@H](O)[C@H](O)[C@H]1O,95.4%
2,CO[C@H](c1ccc(O)c(O)c1)[C@H](CC#Cc1ccc(O)c(O)c1)O[C@@H]1O[C@H](CO)[C@@H](O)[C@H](O)[C@H]1O,104.3%

# Tested on: not listed separately
# Assay: Effect on 2 Hz electrically driven contractile tension in WKY rat right ventricle at 3 uM relative to control
# Format: functional, Heart right ventricle
# Conditions: not given
row,SMILES,Activity
1,CCCCO[C@H](c1ccc(O)c(O)c1)[C@H](CC#Cc1ccc(O)c(O)c1)O[C@@H]1O[C@H](CO)[C@@H](O)[C@H](O)[C@H]1O,96.8%
2,CO[C@H](c1ccc(O)c(O)c1)[C@H](CC#Cc1ccc(O)c(O)c1)O[C@@H]1O[C@H](CO)[C@@H](O)[C@H](O)[C@H]1O,106.3%

# Tested on: not listed separately
# Assay: Effect on 2 Hz electrically driven contractile tension in WKY rat right ventricle at 1 uM relative to control
# Format: functional, Heart right ventricle
# Conditions: not given
row,SMILES,Activity
1,CCCCO[C@H](c1ccc(O)c(O)c1)[C@H](CC#Cc1ccc(O)c(O)c1)O[C@@H]1O[C@H](CO)[C@@H](O)[C@H](O)[C@H]1O,95.8%
2,CO[C@H](c1ccc(O)c(O)c1)[C@H](CC#Cc1ccc(O)c(O)c1)O[C@@H]1O[C@H](CO)[C@@H](O)[C@H](O)[C@H]1O,106.7%

# Tested on: not listed separately
# Assay: Effect on 2 Hz electrically driven contractile tension in WKY rat right ventricle at 0.3 uM relative to control
# Format: functional, Heart right ventricle
# Conditions: not given
row,SMILES,Activity
1,CCCCO[C@H](c1ccc(O)c(O)c1)[C@H](CC#Cc1ccc(O)c(O)c1)O[C@@H]1O[C@H](CO)[C@@H](O)[C@H](O)[C@H]1O,99%

# Tested on: Left cardiac atrium
# Assay: Effect on 2 Hz electrically driven contractile tension in WKY rat left atria at 30 uM relative to control
# Format: functional
# Conditions: not given
row,SMILES,Activity
1,CCCCO[C@H](c1ccc(O)c(O)c1)[C@H](CC#Cc1ccc(O)c(O)c1)O[C@@H]1O[C@H](CO)[C@@H](O)[C@H](O)[C@H]1O,92.5%
2,CO[C@H](c1ccc(O)c(O)c1)[C@H](CC#Cc1ccc(O)c(O)c1)O[C@@H]1O[C@H](CO)[C@@H](O)[C@H](O)[C@H]1O,89.7%

# Tested on: Left cardiac atrium
# Assay: Effect on 2 Hz electrically driven contractile tension in WKY rat left atria at 10 uM relative to control
# Format: functional
# Conditions: not given
row,SMILES,Activity
1,CCCCO[C@H](c1ccc(O)c(O)c1)[C@H](CC#Cc1ccc(O)c(O)c1)O[C@@H]1O[C@H](CO)[C@@H](O)[C@H](O)[C@H]1O,89.4%
2,CO[C@H](c1ccc(O)c(O)c1)[C@H](CC#Cc1ccc(O)c(O)c1)O[C@@H]1O[C@H](CO)[C@@H](O)[C@H](O)[C@H]1O,102.3%

# Tested on: Left cardiac atrium
# Assay: Effect on 2 Hz electrically driven contractile tension in WKY rat left atria at 3 uM relative to control
# Format: functional
# Conditions: not given
row,SMILES,Activity
1,CCCCO[C@H](c1ccc(O)c(O)c1)[C@H](CC#Cc1ccc(O)c(O)c1)O[C@@H]1O[C@H](CO)[C@@H](O)[C@H](O)[C@H]1O,91.2%
2,CO[C@H](c1ccc(O)c(O)c1)[C@H](CC#Cc1ccc(O)c(O)c1)O[C@@H]1O[C@H](CO)[C@@H](O)[C@H](O)[C@H]1O,101.3%

# Tested on: Left cardiac atrium
# Assay: Effect on 2 Hz electrically driven contractile tension in WKY rat left atria at 1 uM relative to control
# Format: functional
# Conditions: not given
row,SMILES,Activity
1,CCCCO[C@H](c1ccc(O)c(O)c1)[C@H](CC#Cc1ccc(O)c(O)c1)O[C@@H]1O[C@H](CO)[C@@H](O)[C@H](O)[C@H]1O,96%
2,CO[C@H](c1ccc(O)c(O)c1)[C@H](CC#Cc1ccc(O)c(O)c1)O[C@@H]1O[C@H](CO)[C@@H](O)[C@H](O)[C@H]1O,103%

# Tested on: Left cardiac atrium
# Assay: Effect on 2 Hz electrically driven contractile tension in WKY rat left atria at 0.3 uM relative to control
# Format: functional
# Conditions: not given
row,SMILES,Activity
1,CCCCO[C@H](c1ccc(O)c(O)c1)[C@H](CC#Cc1ccc(O)c(O)c1)O[C@@H]1O[C@H](CO)[C@@H](O)[C@H](O)[C@H]1O,98.8%

# Tested on: Right cardiac atrium
# Assay: Effect on spontaneous contractile tension in WKY rat right atria at 1 uM relative to control
# Conditions: not given
row,SMILES,Activity
1,CCCCO[C@H](c1ccc(O)c(O)c1)[C@H](CC#Cc1ccc(O)c(O)c1)O[C@@H]1O[C@H](CO)[C@@H](O)[C@H](O)[C@H]1O,91%
2,CO[C@H](c1ccc(O)c(O)c1)[C@H](CC#Cc1ccc(O)c(O)c1)O[C@@H]1O[C@H](CO)[C@@H](O)[C@H](O)[C@H]1O,99%

# Tested on: Right cardiac atrium
# Assay: Effect on spontaneous contractile tension in WKY rat right atria at 3 uM relative to control
# Conditions: not given
row,SMILES,Activity
1,CCCCO[C@H](c1ccc(O)c(O)c1)[C@H](CC#Cc1ccc(O)c(O)c1)O[C@@H]1O[C@H](CO)[C@@H](O)[C@H](O)[C@H]1O,89.6%
2,CO[C@H](c1ccc(O)c(O)c1)[C@H](CC#Cc1ccc(O)c(O)c1)O[C@@H]1O[C@H](CO)[C@@H](O)[C@H](O)[C@H]1O,99%

# Tested on: Right cardiac atrium
# Assay: Effect on spontaneous contractile tension in WKY rat right atria at 10 uM relative to control
# Conditions: not given
row,SMILES,Activity
1,CCCCO[C@H](c1ccc(O)c(O)c1)[C@H](CC#Cc1ccc(O)c(O)c1)O[C@@H]1O[C@H](CO)[C@@H](O)[C@H](O)[C@H]1O,86.2%
2,CO[C@H](c1ccc(O)c(O)c1)[C@H](CC#Cc1ccc(O)c(O)c1)O[C@@H]1O[C@H](CO)[C@@H](O)[C@H](O)[C@H]1O,100.3%

# Tested on: Right cardiac atrium
# Assay: Effect on spontaneous contractile tension in WKY rat right atria at 30 uM relative to control
# Conditions: not given
row,SMILES,Activity
1,CCCCO[C@H](c1ccc(O)c(O)c1)[C@H](CC#Cc1ccc(O)c(O)c1)O[C@@H]1O[C@H](CO)[C@@H](O)[C@H](O)[C@H]1O,83.6%
2,CO[C@H](c1ccc(O)c(O)c1)[C@H](CC#Cc1ccc(O)c(O)c1)O[C@@H]1O[C@H](CO)[C@@H](O)[C@H](O)[C@H]1O,101.7%

# Tested on: Heart
# Assay: Effect on spontaneously beating heart rate in WKY rat right atria at 1 uM relative to control
# Conditions: not given
row,SMILES,Activity
1,CCCCO[C@H](c1ccc(O)c(O)c1)[C@H](CC#Cc1ccc(O)c(O)c1)O[C@@H]1O[C@H](CO)[C@@H](O)[C@H](O)[C@H]1O,100%
2,CO[C@H](c1ccc(O)c(O)c1)[C@H](CC#Cc1ccc(O)c(O)c1)O[C@@H]1O[C@H](CO)[C@@H](O)[C@H](O)[C@H]1O,100%

# Tested on: Heart
# Assay: Effect on spontaneously beating heart rate in WKY rat right atria at 3 uM relative to control
# Conditions: not given
row,SMILES,Activity
1,CCCCO[C@H](c1ccc(O)c(O)c1)[C@H](CC#Cc1ccc(O)c(O)c1)O[C@@H]1O[C@H](CO)[C@@H](O)[C@H](O)[C@H]1O,99%
2,CO[C@H](c1ccc(O)c(O)c1)[C@H](CC#Cc1ccc(O)c(O)c1)O[C@@H]1O[C@H](CO)[C@@H](O)[C@H](O)[C@H]1O,103%

# Tested on: Heart
# Assay: Effect on spontaneously beating heart rate in WKY rat right atria at 10 uM relative to control
# Conditions: not given
row,SMILES,Activity
1,CCCCO[C@H](c1ccc(O)c(O)c1)[C@H](CC#Cc1ccc(O)c(O)c1)O[C@@H]1O[C@H](CO)[C@@H](O)[C@H](O)[C@H]1O,99.8%
2,CO[C@H](c1ccc(O)c(O)c1)[C@H](CC#Cc1ccc(O)c(O)c1)O[C@@H]1O[C@H](CO)[C@@H](O)[C@H](O)[C@H]1O,103%

# Tested on: Heart
# Assay: Effect on spontaneously beating heart rate in WKY rat right atria at 30 uM relative to control
# Conditions: not given
row,SMILES,Activity
1,CCCCO[C@H](c1ccc(O)c(O)c1)[C@H](CC#Cc1ccc(O)c(O)c1)O[C@@H]1O[C@H](CO)[C@@H](O)[C@H](O)[C@H]1O,97.6%
2,CO[C@H](c1ccc(O)c(O)c1)[C@H](CC#Cc1ccc(O)c(O)c1)O[C@@H]1O[C@H](CO)[C@@H](O)[C@H](O)[C@H]1O,103%

# Tested on: Right cardiac atrium
# Assay: Effect on spontaneous contractile tension in WKY rat right atria at 0.3 uM relative to control
# Conditions: not given
row,SMILES,Activity
1,CCCCO[C@H](c1ccc(O)c(O)c1)[C@H](CC#Cc1ccc(O)c(O)c1)O[C@@H]1O[C@H](CO)[C@@H](O)[C@H](O)[C@H]1O,94%

# Tested on: Heart
# Assay: Effect on spontaneously beating heart rate in WKY rat right atria at 0.3 uM relative to control
# Conditions: not given
row,SMILES,Activity
1,CCCCO[C@H](c1ccc(O)c(O)c1)[C@H](CC#Cc1ccc(O)c(O)c1)O[C@@H]1O[C@H](CO)[C@@H](O)[C@H](O)[C@H]1O,100%
